≈ marks a conversion by molar mass, not a printed value. Where “and” joins values, the source holds several entries; their conditions need not be identical. Identical values can stand only once.
How the values were obtained:
P. aeruginosa (MTCC1934) [1] = experiment: Agar well diffusion
MRSA 831 persister cells = experiment: Persister killing assay; assay type: cell-based, methicillin-resistant S. aureus; conditions: MRSA persisters; 4-fold MIC
Experimental: To evaluate the persister-killing activity of 2,2’-Bipy derivatives, MTCC 737 and MRSA 831 cells were grown overnight to the stationary phase at 37°C ([Kim et al., 2018b]). […]. The bacterial densities of persisters were recorded at OD600 at hourly intervals from 0 to 6 h.

M. luteus (MTCC 106) = experiment: Agar well diffusion
MTCC 737 [2] = experiment: Transmission electron microscopy; conditions: S. aureus MTCC 737; 100 µg/ml, 12 h
V. cholerae (MTCC 3906) [3] = experiment: Agar well diffusion; assay type: cell-based, Vibrio cholerae
MRSA 831 [4] = experiment: Broth microdilution MIC; conditions: 18 h
E. coli (MTCC739) [5] = experiment: Broth microdilution MIC
S. aureus (MTCC737) [6] = experiment: Agar well diffusion
MTCC 737 [7] = experiment: Biofilm inhibition assay (crystal violet); conditions: S. aureus; at MIC or higher concentrations
Experimental: After incubation, cells were washed with 1X PBS, and stained with 100 µl of Crystal Violet dye for 15 min, and rinsed again with 1X PBS.

MRSA 831 [8] = experiment: Transmission electron microscopy; conditions: 100 µg/ml, 12 h
V. cholerae (MTCC 3906) [9] = experiment: Broth microdilution MIC; assay type: cell-based, Vibrio cholerae
K. pneumoniae (MTCC 618) [10] = experiment: Broth microdilution MIC
S. aureus (MTCC737) [11] = experiment: Broth microdilution MIC
MTCC 737 [12] = experiment: Biofilm imaging by confocal laser scanning microscopy (SYTO 9/PI); conditions: derivatives 100 µg/ml, 24 h
Text: Using SYTO 9 and PI dyes. […] Two independent experiments were done in triplicate.

MRSA 831 (MRSA) = experiment: Agar well diffusion; conditions: MRSA 831, 50 µg/ml, ND = Not detected
E. coli (MTCC739) [13] = experiment: Agar well diffusion
Cytotoxicity (MTT assay) = assay type: cell-based, murine; conditions: mouse
Experimental: (§1) The murine fibroblast 3T3 L-1 cell line was procured from the National Centre for Cell Science (NCCS), Pune, India. The 3T3 L-1 cells were incubated at 37°C in an incubator maintained at 95% humidity and 5% CO2 in DMEM medium complemented with 10% fetal bovine serum (FBS) and 1% penicillin-streptomycin.
(§2) Synthesized derivatives were evaluated for cytotoxicity in a 3T3-L1 cell line using the MTT assay ([Ernawati et al., 2022]). 8000 cells/well were added in 96-well tissue culture flat-bottom microtiter plates for 24 h and then incubated with synthesized molecules (0-400 µg/ml) for 48 h at 37°C in a CO2 incubator. DMSO was used as solvent at a concentration of 0.1% to ensure that any observed effects were not attributable to the solvent itself, whereas 1 µg/ml doxorubicin was used in toxicity tests as a positive control. Subsequently, the media was replaced with MTT solution (100 µl) diluted in fresh media (0.5 mg/ml), and incubated for 4 h. After incubation, 100 µl of stop solution (50% DMF with 20% SDS) was added to dissolve the formazan crystals, and the plates were further incubated for 1 h. Absorbance was measured at 570 nm using BioTEK Synergy multi-plate reader ([Mosmann, 1983]; [Pratelli et al., 2023]). Percent cell viability was calculated using the following formula:
(§3) Cell viability (%)=Absorbance (Untreated - blank) - Absorbance (Test sample- blank)/Absorbance (Untreated - blank)×100

P. aeruginosa (MTCC1934) [14] = experiment: Broth microdilution MIC
B. subtilis (MTCC 441) = experiment: Agar well diffusion
K. pneumoniae (MTCC 618) [15] = experiment: Agar well diffusion; conditions: 50 µg/ml, ND = Not detected
3T3-L1 cell line = experiment: Cytotoxicity (MTT assay); assay type: cell-based, murine
Experimental: as §1, §2, §3

MRSA = tested on: MRSA; parameters: method as in Lee et al., 2017; conditions: ref Lee et al., 2017; cited from earlier work
MTCC 737 [16] = experiment: PI uptake assay; assay type: cell-based, Staphylococcus aureus; conditions: derivatives 100 µg/ml, Polymyxin B 10 μM, 1 h
Experimental: (§4) MTCC 737 and MRSA 831 were grown, washed, and resuspended in 5 mM HEPES (pH 7.2), with the OD600 normalized to 0.5. […] Polymyxin B (10 μM), a membrane destabilizer, was used as a reference control. Drug-free and vehicle controls (cells treated with 0.5% DMSO) were included to analyze changes in fluorescence. After 1 h of treatment, cultures were centrifuged and stained with 5 µM PI dye for 15 min. Following staining, the cultures were washed twice to remove the extra dye, and fluorescence was recorded at 485 nm excitation and 525 nm emission wavelengths ([Zhou et al., 2020]).

MRSA 831 [17] = experiment: PI uptake assay; assay type: cell-based, methicillin-resistant S. aureus; conditions: derivatives 100 µg/ml, Polymyxin B 10 μM, 1 h
Experimental: as §4

For `COc1ccccc1C(=NO)c1cc(C)cc(-c2cc(C)ccn2)n1` [NPS4, N-[(4,4’-dimethyl[2,2’-bipyridin]-6-yl)(2-methoxyphenyl)methylidene] hydroxylamine], the zone of inhibition at 50 µg/mL (P. aeruginosa (MTCC1934) [1]; Pseudomonas aeruginosa, MTCC1934) was 18 ± 1 mm, the “Effect on persister cell counts” value (MRSA 831 persister cells) was “significantly reduced” and the zone of inhibition at 50 µg/mL (M. luteus (MTCC 106); Micrococcus luteus, MTCC106) was 19.3 ± 0.58 mm. For the same compound, the “Cell morphology (TEM)” value (MTCC 737 [2]) was “Significant morphological alterations”, the zone of inhibition at 50 µg/mL (V. cholerae (MTCC 3906) [3]; Vibrio cholerae, MTCC3906) was 17.7 ± 3.21 mm and the MIC (MRSA 831 [4]; Staphylococcus aureus, MRSA, read-out: Minimum inhibitory concentration) was 50 µg/mL (≈ 150 µM). For the same compound, the MIC (E. coli (MTCC739) [5]; Escherichia coli, MTCC739, 18 h, read-out: Minimum inhibitory concentration) was > 100 µg/mL, the zone of inhibition at 50 µg/mL (S. aureus (MTCC737) [6]; Staphylococcus aureus, MTCC737) was 19 mm and the “Biofilm formation inhibition (in words)” value (MTCC 737 [7]) was “highly effective”. The “Cell morphology (TEM)” value (MRSA 831 [8]) was “Significant morphological alterations”, the MIC (V. cholerae (MTCC 3906) [9]; Vibrio cholerae, MTCC3906, 18 h, read-out: Minimum inhibitory concentration) was 12.5 µg/mL (≈ 37.5 µM) and the MIC (K. pneumoniae (MTCC 618) [10]; Klebsiella pneumoniae, MTCC618, 18 h, read-out: Minimum inhibitory concentration) was > 100 µg/mL. The MIC (S. aureus (MTCC737) [11]; Staphylococcus aureus, MTCC737, 18 h, read-out: Minimum inhibitory concentration) was 50 µg/mL (≈ 150 µM), the “Biofilm disruption (CLSM)” value (MTCC 737 [12]) was “significant disruption and damage” and the Zone of inhibition (MRSA 831 (MRSA)) was 14.33 ± 0.58 mm. For the same compound, the zone of inhibition at 50 µg/mL (MRSA 831 (MRSA); Staphylococcus aureus, MRSA) was 14 mm, the zone of inhibition at 50 µg/mL (E. coli (MTCC739) [13]; Escherichia coli, MTCC739) was 9 ± 1 mm and the IC50 at 24 h (Cytotoxicity (MTT assay)) was 279 µg/mL. For the same compound, the IC50 at 48 h (Cytotoxicity (MTT assay)) was 240 µg/mL, the MIC (P. aeruginosa (MTCC1934) [14]; Pseudomonas aeruginosa, MTCC1934, 18 h, read-out: Minimum inhibitory concentration) was > 100 µg/mL and the zone of inhibition at 50 µg/mL (B. subtilis (MTCC 441); Bacillus subtilis, MTCC441) was 10 ± 1 mm.
For `CCC(=NO)c1cc(OC)cc(-c2cc(OC)ccn2)n1` [NPS5, N-[1-(4,4’-dimethoxy[2,2’-bipyridin]-6-yl)propyldiene]hydroxylamine], the Zone of inhibition (P. aeruginosa (MTCC1934) [1]; P. aeruginosa (MTCC1934), 50 µg/ml, ND = Not detected) was 18.00 ± 1.00 mm, the Zone of inhibition (M. luteus (MTCC 106); M. luteus (MTCC 106), 50 µg/ml, ND = Not detected) was 7.33 ± 2.89 mm and the Zone of inhibition (V. cholerae (MTCC 3906) [3]; V. cholerae (MTCC 3906), 50 µg/ml, ND = Not detected) was 17.67 ± 3.21 mm. For the same compound, the Minimum inhibitory concentration (MRSA 831 [4]; MRSA 831) was 50 µg/mL (≈ 174 µM), the Minimum inhibitory concentration (E. coli (MTCC739) [5]; E. coli (MTCC739), 18 h) was > 100 µg/mL and the Zone of inhibition (S. aureus (MTCC737) [6]; S. aureus (MTCC737), 50 µg/ml, ND = Not detected) was 10.00 ± 1.73 mm. For the same compound, the Minimum inhibitory concentration (V. cholerae (MTCC 3906) [9]; V. cholerae (MTCC 3906), 18 h) was 50 µg/mL (≈ 174 µM), the Minimum inhibitory concentration (K. pneumoniae (MTCC 618) [10]; K. pneumoniae (MTCC 618), 18 h) was > 100 µg/mL and the Zone of inhibition (K. pneumoniae (MTCC 618) [15]) was 13.00 ± 1.00 mm. The Minimum inhibitory concentration (S. aureus (MTCC737) [11]; S. aureus (MTCC737), 18 h) was 50 µg/mL (≈ 174 µM), the Zone of inhibition (MRSA 831 (MRSA)) was 14 mm and 14.33 ± 0.58 mm and the Zone of inhibition (E. coli (MTCC739) [13]; E. coli (MTCC739), 50 µg/ml, ND = Not detected) was 9.00 ± 1.00 mm. For the same compound, the Minimum inhibitory concentration (P. aeruginosa (MTCC1934) [14]; P. aeruginosa (MTCC1934), 18 h) was > 100 µg/mL and the Zone of inhibition (B. subtilis (MTCC 441); B. subtilis (MTCC 441), 50 µg/ml, ND = Not detected) was 4.00 ± 0.00 mm.
With `CCC(=NO)c1cc(OC)cc(-c2cc(OC)ccn2)n1` [NPS6, N-[1-(4,4’-dimethoxy[2,2’-bipyridin]-6-yl)propyldiene]hydroxylamine] the “IC50 (cytotoxicity, MTT)” value (3T3-L1 cell line) was 168.1 µg/mL.
For `COc1cc(-c2ccccn2)nc(CO)c1SC` [collismycin C], the MRSA biofilm formation (MRSA) is given as “inhibited MRSA biofilm formation”.
With Polymyxin B [reference compound] the “PI fluorescence (membrane integrity)” value (MTCC 737 [16]) was “higher fluorescence” and the “PI fluorescence (membrane integrity)” value (MRSA 831 [17]) was “higher fluorescence”.
